The values that follow come from PMC4216111, “The Bile Acid-Sensitive Ion Channel (BASIC) Is Activated by Alterations of Its Membrane Environment” (PLoS ONE, 2014).

Data set [1] is described as follows: Solubility in bath solution. As to conditions: read-out: solubility limit. Format: physicochemical.
For data set [2], the system named is mouse BASIC. Description: Two-electrode voltage clamp, oocytes expressing mouse BASIC. A general note: Two-electrode voltage clamp holds a large cell at a set potential and records current.
Data set [3] has as its target T1, rat BASIC (Rattus norvegicus, UniProt Q9R0W5).
T1 sequence (Q9R0W5 1-495): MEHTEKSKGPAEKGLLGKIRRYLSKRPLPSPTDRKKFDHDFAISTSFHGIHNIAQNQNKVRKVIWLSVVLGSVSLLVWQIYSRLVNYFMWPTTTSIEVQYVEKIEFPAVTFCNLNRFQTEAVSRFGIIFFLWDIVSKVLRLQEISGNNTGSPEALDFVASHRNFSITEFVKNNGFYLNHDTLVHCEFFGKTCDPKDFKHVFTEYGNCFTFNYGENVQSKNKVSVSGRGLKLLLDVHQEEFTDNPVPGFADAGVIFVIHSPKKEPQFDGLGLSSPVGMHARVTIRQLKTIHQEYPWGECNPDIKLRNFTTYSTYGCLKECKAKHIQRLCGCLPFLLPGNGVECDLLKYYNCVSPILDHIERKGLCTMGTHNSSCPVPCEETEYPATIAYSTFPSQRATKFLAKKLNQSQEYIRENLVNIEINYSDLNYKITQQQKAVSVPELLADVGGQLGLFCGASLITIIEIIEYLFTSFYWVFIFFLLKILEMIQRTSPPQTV
Description: Two-electrode voltage clamp, Xenopus laevis oocytes expressing rat BASIC. As to conditions: for IC50: read-out: IC50 of BASIC inhibition.

Data set [4] relates to T2, mouse BASIC.
T2 construct: expressed in transfected cells; host or cells: Xenopus laevis oocytes injected with cRNA
More on the design: method as in PMID 21828194. As to conditions: cited from earlier work.

The subject of data set [5] is human BASIC. The arrangement: method as in PMID 21828194. As to conditions: cited from earlier work.
Data set [6] concerns the target T1, rat BASIC. More on the design: expressed in transfected cells; host or cells: Xenopus laevis oocytes injected with cRNA. As to conditions: cited from earlier work.
For data set [7], the system named is non-injected oocytes. Description: Two-electrode voltage clamp, non-injected control oocytes.
Data set [8] relates to rat ASIC1a. Description: Two-electrode voltage clamp, oocytes expressing rat ASIC1a. As to conditions: 400 µM SDS, 500 µM NL, 100 µM Triton-X 100, 2 mM UDCA.
The subject of data set [9] is Hydra Na^+ Channel (HyNaC) 2/3/5. Description: Two-electrode voltage clamp, oocytes expressing HyNaC2/3/5. The following applies: 400 µM SDS, 500 µM NL, 100 µM Triton-X 100, 5 µM RFamide I. Format: cell-based.
Data set [10] relates to rASIC1a-rBASIC-loop. Description: Two-electrode voltage clamp, chimera rASIC1a-rBASIC-loop. It is filed as cell-based, rat. As to conditions: 2 mM UDCA. An excerpt:
(§1) Clones for rat BASIC (accession No. NM_022227), mouse BASIC (accession No. NM_021370), rat ASIC1a (accession No. NM_024154) and HyNaC 2, 3 and 5 (accession No. AM393878, AM393880 and FN257513) were described previously, [15], [16]. Chimeras between BASIC and ASIC1a were generated by overlap PCR and PCR fragments were cloned into the expression vector pRSSP6009 [15] using the In-Fusion cloning kit (Invitrogen, Germany). Sequences were confirmed by sequencing. Plasmid DNAs were linearized using the restriction endonucleases MluI or NaeI. cRNA was synthesized from linearized plasmids using the SP6 mMessage mMachine kit (Ambion, USA).
(§2) Chemicals were purchased from Sigma or Merck.

The test system of data set [11] is rASIC1a-rBASIC-TM1, -TM2 or -TM. Description: Two-electrode voltage clamp, chimeras rASIC1a-rBASIC-TM1, -TM2 or -TM. It is filed as cell-based, rat. The following applies: 2 mM UDCA.
Description: as §1, §2

Data set [12] deals with rBASIC-rASIC1a-loop. Description: Two-electrode voltage clamp, chimera rBASIC-rASIC1a-loop. It is filed as cell-based, rat. As to conditions: 2 mM UDCA.
Description: as §1, §2

Data set [13] deals with rASIC1a-rBASIC-loop 1, - 2 and -3. Description: Two-electrode voltage clamp, chimeras rASIC1a-rBASIC-loop 1, -2 and -3. The following applies: 2 mM UDCA. It is filed as cell-based, rat.
Description: as §1, §2

Data set [14] has as its system rASIC1a rBASIC loop 1–2, rASIC1a rBASIC loop 2–3. Description: Two-electrode voltage clamp, chimeras rASIC1a rBASIC loop 1–2 and loop 2–3. Format: cell-based, rat. As to conditions: 2 mM UDCA.
Description: as §1, §2

Where [15] appears, read: 2 mM UDCA, 500 µM CPZ, 10 mM TNP, 100 µM Triton-X 100, 500 µM NL, 400 µM SDS, n = 8.
Where [16] appears, read: 400 µM SDS, 500 µM N-lauroylsarcosine, 100 µM Triton-X 100, n = 7.
Where [17] appears, read: 400 µM SDS, 500 µM NL, 100 µM Triton-X 100, n = 8.

Like-named read-outs stand apart in the source and are kept apart here.

`CN(C)CCCN1c2ccccc2Sc2ccc(Cl)cc21` [CPZ, chlorpromazine]: in data set [1], the solubility (as a rule, the dissolved amount per volume that the medium holds) is ≤ 500 µM. The “activity of mouse BASIC, normalized to the amiloride-sensitive current” value (“activity of mouse BASIC, normalized” for short) in [2] (setting [15]) came to 0.95 fold. Besides, in data set [3] (0.5 mM CPZ co-applied with 2 mM UDCA), the “decrease of the response of BASIC to 2 mM UDCA” value is given as 2.0 fold.

Turning to `O=C(O)c1ccccc1Nc1cccc(C(F)(F)F)c1` [FFA, flufenamic acid], in data set [4], the “effect on mouse BASIC” value is “not affected”. Also, the “activation of human BASIC” value in [5] is given as “activated”. Also, the “activation of rat BASIC” value in data set [6] is recorded as “activated”.

Regarding `[Gd+3]` [Gd^3+, gadolinium], the “response of non-injected control oocytes” value in [7] is reported as “did not respond”. In [3] (100 µM Gd^3+ co-applied with 2 mM UDCA), the “effect on UDCA-dependent activation of BASIC” value is “completely abolished”. The IC50 (commonly the midpoint of a concentration-inhibition curve) in data set [3] (in the absence of UDCA (resting state), n = 8) was determined as 102 ± 34 µM; in data set [3] (in the presence of 2 mM UDCA, n = 8), 19 ± 7 µM.

Turning to `CCCCCCCCCCCC(=O)N(C)CC(=O)O` [NL, N-lauroylsarcosine], the “activity of mouse BASIC, normalized” value in data set [2] (setting [15]) is recorded as 1.5 fold. In addition, in data set [8], the “activation of ASIC1a” value was “not activated”. Besides, in data set [7] (setting [16]), the “current in un-injected oocytes” value is on record as 35±0.8 nA. In [3] (setting [17]), the “increase of the low-activity (DIMI-sensitive) BASIC currents” value (from here on “increase of the low-activity”) amounted to 3 fold. Further, in [3] (co-applied with diminazene), the “effect on currents when applied in the presence of diminazene” value (“effect on currents when applied” for short) is on record as “did not increase currents”. Moreover, the “activation of HyNaC 2/3/5” value in data set [9] is “not activated”.

Regarding `CCCCCCCCCCCCOS(=O)(=O)[O-].[Na+]` [SDS], the “activity of mouse BASIC, normalized” value in data set [2] (setting [15]) is reported as 1.5 fold. Also, in [8], the “activation of ASIC1a” value is reported as “not activated”. The “current in un-injected oocytes” value in [7] (setting [16]) came out at 34±0.6 nA. The “increase of the low-activity” value in [3] (setting [17]) is 2 fold. In addition, the “effect on currents when applied” value in data set [3] (co-applied with diminazene) is “did not increase currents”. The “activation of HyNaC 2/3/5” value in data set [9] is reported as “not activated”.

Regarding `C[C@H](CCC(=O)NCCS(=O)(=O)O)[C@H]1CC[C@H]2[C@@H]3[C@@H](O)C[C@@H]4C[C@H](O)CC[C@]4(C)[C@H]3CC[C@]12C` [UDCA, tauroursodeoxycholic acid], in data set [10], the “UDCA sensitivity of chimera rASIC1a-rBASIC-loop” value was “weakly sensitive to UDCA”. Besides, in data set [2] (setting [15]), the “activity of mouse BASIC, normalized” value was found to be 1.3 fold. Further, in data set [11], the “activation by UDCA of chimeras rASIC1a-rBASIC-TM1, -TM2, -TM” value is “activated by UDCA”. In addition, the “activation of ASIC1a” value in data set [8] is recorded as “not activate ASIC1a”. In data set [12], the “response to UDCA of chimera rBASIC-rASIC1a-loop compared to removal of divalent cations” value is “extremely weak”. For the same molecule, in [3], the EC50 (usually the concentration giving half of the maximal effect) amounted to 2700 ± 60 µM. Moreover, in [3] (2 mM UDCA), the “activation of BASIC” value was “strongly activated BASIC”. Moreover, the “maximum current at 5 mM UDCA” value in data set [3] (5 mM UDCA, n = 10) came to 23.8±2.4 µA. Moreover, the “response to UDCA of chimeras rASIC1a-rBASIC-loop 1, -2 and -3” value in data set [13] is recorded as “responded weakly to UDCA”. Also, the “activation by UDCA of chimeras loop 1–2 and loop 2–3” value in data set [14] is on record as “weakly activated by UDCA”.

On to `CC(C)CCC[C@@H](C)[C@H]1CC[C@H]2[C@@H]3CC=C4C[C@@H](O)CC[C@]4(C)[C@H]3CC[C@]12C` [cholesterol], for which the “effect of cholesterol application on rBASIC dependent current” value in data set [3] (2 mM MβCD-balanced water-soluble cholesterol, 10 sec) is listed as “did not affect the rBASIC dependent current”.

Regarding `N=C(N)c1ccc(/N=N/Nc2ccc(C(=N)N)cc2)cc1` [diminazene], in data set [3] (100 µM DIMI alone or together with SDS, NL or Triton-X 100), the “effect of diminazene on BASIC currents” value is reported as “inhibited BASIC currents”. Further, in [3] (n = 8), the “DIMI-sensitive current in the absence of stimulatory substances” value was 0.25±0.03 µA.

For MβCD, the “effect of cholesterol removal on rBASIC activity” value in [3] (20 mM MβCD, approximately 2 h, control, −Ca^2+ and 2 mM UDCA) is “does not influence rBASIC activity”.

For Triton-X 100, in [2], the “activity of mouse BASIC, normalized” value was 1.2 fold. In data set [8], the “activation of ASIC1a” value was “not activated”. In addition, the “current in un-injected oocytes” value in [7] stood at 35±0.8 nA. In [3], the “effect on currents when applied” value is “inhibited by diminazene” and the “increase of the low-activity” value was 1.5 fold. Moreover, the “activation of HyNaC 2/3/5” value in data set [9] is recorded as “not activated”.
